Source: PMC7596181 (Frontiers in Immunology, 2020)

Target: T1, mouse TLR4 (Mus musculus, UniProt Q9JHF9+Q9QUK6)
T1 sequence (Q9QUK6 26-835): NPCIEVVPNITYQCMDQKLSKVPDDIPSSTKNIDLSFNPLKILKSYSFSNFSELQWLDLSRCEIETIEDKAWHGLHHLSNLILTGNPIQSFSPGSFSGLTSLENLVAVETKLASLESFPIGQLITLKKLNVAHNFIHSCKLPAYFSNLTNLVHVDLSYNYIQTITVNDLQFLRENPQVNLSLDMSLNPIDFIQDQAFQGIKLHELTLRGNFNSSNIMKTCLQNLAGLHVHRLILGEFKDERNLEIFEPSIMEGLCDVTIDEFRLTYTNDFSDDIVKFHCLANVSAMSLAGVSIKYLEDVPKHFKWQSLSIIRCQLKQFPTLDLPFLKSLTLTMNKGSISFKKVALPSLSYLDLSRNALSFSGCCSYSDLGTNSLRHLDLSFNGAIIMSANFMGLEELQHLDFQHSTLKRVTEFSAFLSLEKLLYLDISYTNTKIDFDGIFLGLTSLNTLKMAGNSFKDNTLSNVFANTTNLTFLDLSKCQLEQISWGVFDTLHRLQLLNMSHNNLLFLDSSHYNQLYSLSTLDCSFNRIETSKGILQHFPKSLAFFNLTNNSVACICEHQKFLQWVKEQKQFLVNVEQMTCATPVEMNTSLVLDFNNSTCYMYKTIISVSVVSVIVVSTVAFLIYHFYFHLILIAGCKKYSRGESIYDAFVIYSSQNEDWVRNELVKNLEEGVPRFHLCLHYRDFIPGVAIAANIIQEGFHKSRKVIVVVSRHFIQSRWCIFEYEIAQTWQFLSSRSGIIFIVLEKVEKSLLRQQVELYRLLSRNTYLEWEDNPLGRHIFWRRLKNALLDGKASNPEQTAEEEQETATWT
T1 sequence (Q9JHF9 19-160): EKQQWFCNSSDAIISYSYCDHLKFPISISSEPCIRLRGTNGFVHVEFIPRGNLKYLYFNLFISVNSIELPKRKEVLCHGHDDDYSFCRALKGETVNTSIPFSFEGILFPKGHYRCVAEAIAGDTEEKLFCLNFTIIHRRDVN
Test: SEAP assay, agonist dose response in mouse TLR4 HEK-Blue reporter cells
Type: cell-based
Parameters: host or cells: HEK-Blue (HEK293-derived) reporter cells
Conditions: for agonist profile: mouse TLR4 HEK-Blue reporter cells
Protocol: Human and mouse HEK-Blue reporter cells express human or mouse CD14, MD2, and TLR4 and secreted embryonic alkaline phosphatase (SEAP) under control of a promoter with binding sites for NFκB and AP-1 transcription factors (InvivoGen cat. nos. hkb-htlr4 and hkb-mtlr4). Cells were cultured as directed by the supplier, with the exception that Glutamax (ThermoFisher cat. no. 10569010) was used in place of L-glutamine, and TrypLE Express (ThermoFisher cat. no. 12605010) was used to release adherent cells for each passage. BALB/c mouse RAW264.7 and human THP-1 cells (ATCC® cat. nos. TIB-71 and TIB-202) were cultured in DMEM (4.5 g/L D-Glucose with 2 mM L-glutamine, 1 mM sodium pyruvate, 100 U/ml penicillin and 100 μg/ml streptomycin) supplemented with 10% heat-inactivated FBS. THP-1 cells were exposed to phorbol-12-myristate-13-acetate (PMA, InvivoGen cat no. tlrl-pma), 5 ng/ml, for 48 h prior to treatment with TLR4 agonists. Bone marrow-derived dendritic cells (BMDCs) were generated using C57BL/6 mouse femurs following the exact method published by Lutz et al. ([29]) except that 5 rather than 20 ng/ml recombinant GM-CSF was used to differentiate the DC. Human peripheral blood […] (PBMCs) were prepared from venous blood of healthy volunteers that had been collected using sodium citrate as anti-coagulant, 20 ml of which was mixed with 15 ml calcium- and magnesium-free Hank’s Balanced Saline Solution (HBSS) and then laid over 6 ml Histopaque®-1077 (1.077 g/ml, Sigma-Aldrich cat no. 10771) for density gradient centrifugation. The buffy coat layer was collected by pipette, washed once in HBSS, once in serum-free RPMI-1640, and then the PBMCs were resuspended in RPMI-1640 supplemented with 100 U/ml penicillin, 100 µg/ml streptomycin, 1 mM Na-Pyruvate, 2 mM L-glutamine, 50 μM βME and 10% heat-inactivated, male AB human serum for culture.
SEAP assays were performed to evaluate the extent to which TLR4 signaling was activated in HEK-Blue reporter cells expressing mouse or human receptors (CD14, MD2 and TLR4). Reporter cells were harvested when 70–80% confluent and plated in 96-well, flat-bottom microtiter plates either 1 h, one day or two days (5 × 10^4, 4 × 10^4 or 2 × 10^4 cells/well, respectively) before addition of TLR4 agonists for 18–24 h. Culture supernatants were transferred to U-bottom microtiter plates, centrifuged and transferred again to microtiter plates to ensure reporter cells were not present. The culture supernatants were added to QUANTI-BLUE substrate following instructions provided by the manufacturer (InvivoGen cat. nos. rep-qbl or rep-qbs) and incubated at 37°C in a tissue culture incubator. At successive intervals beginning 10 min after mixing the supernatants and substrate, the plates were placed in an Emax plate reader (Molecular Devices LLC) and optical density was measured at visible light wavelength […] (OD650). The shortest incubations at which dose response curve fits produced maximal R^2 ‘goodness of fit’ values, as determined by GraphPad Prism software, were used for analysis.
Pharmacological profiles of the TLR4 reagents were generated by performing dose response curves in one of four formats. 1) Agonist potency and efficacy (EC50 and height of dose plateau, respectively) were measured by diluting TLR4 reagents successively in complete culture medium [DMEM or RPMI supplemented with fetal bovine serum (FBS) or RPMI supplemented with human serum, depending on cell-type]. Half-log step dilutions were performed in 96-well, U-bottom microtiter plates using a multichannel pipette to transfer and mix the suspensions, with fresh tips used for each dilution step. One-tenth (20 μl) volumes from wells of the dilution plate were then transferred to wells containing cells that had been plated in nine-tenth volumes (180 μl) of culture medium. […]

## CCCCCCCCCCCC(=O)OC(CCCCCCCCCCC)CC(=O)NC1C(OCC2OC(O)C(NC(=O)CC(O)CCCCCCCCCCC)C(O)C2O)OC(CO)C(OP(=O)(O)O)C1O (stereo not shown) [ML3]
  agonist profile: largely inactive

## CCCCCCCCCCCC(=O)OC(CCCCCCCCCCC)CC(=O)NC1C(OCC2OC(O)C(NC(=O)CC(O)CCCCCCCCCCC)C(O)C2O)OC(CO)C(OP(=O)(O)O)C1OC(=O)CC(O)CCCCCCCCCCC (stereo not shown) [ML4A]
  agonist profile: agonist only of mouse TLR4
Mouse TLR4 HEK-Blue, 100% = top dose plateau of PHAD
  efficacy relative to the full agonist PHAD: ~80%

## CCCCCCCCCCCCCCCC(=O)OC(CCCCCCCCCCC)CC(=O)NC1C(O)OC(COC2OC(CO)C(OP(=O)(O)O)C(O)C2NC(=O)CC(CCCCCCCCCCC)OC(=O)CCCCCCCCCCC)C(O)C1O (stereo not shown) [ML4B]
  agonist profile: largely inactive
